Assay results: paper PMC3561413 (PLoS ONE, 2013)

What was measured:
[1] = test system: CD34+ cells from PMF patients; test: CD34+ proliferation assay (WST-1, 48 h), PMF patients; assay type: cell-based; settings: Homo sapiens, CD34+ cell; PMF patients n = 6, 48 h, cytokine cocktail
Procedure: (§1) To measure the drug-induced inhibition of CD34^+ cell growth, purified cells were plated at 3·10^4 cells/well in IDMEM supplemented with cytokines and variable amounts of the drugs were added. Cell proliferation was evaluated using the WST-1 Assay (Roche, USA) after 48 h and results were normalized to wells containing vehicle only.
(§2) CD34^+ cells from patients with PMF (n = 6) or control subjects (Ctr; n = 5) were plated at 2×10^5/mL in 96-well culture tissue plates with increasing concentrations of the drugs, in triplicate; viable cells were assessed after 48 hrs using the WST-1 assay and normalized to wells containing an equivalent volume of vehicle (DMSO) only.

[2] = test system: Ba/F3-EPOR wt cells (JAK2 wild-type); test: Inhibition of proliferation assay (WST-1, 48 h), Ba/F3-EPOR wt; assay type: cell-based; settings: Mus musculus, 1 U/mL EPO, mean±SD, read-out: IC50 of cell proliferation
Procedure: (§3) Ba/F3-EPOR cells, both wt and VF, HEL and SET2 cells were plated at 2×10^4 in 96-well culture tissue plates with increasing concentrations of the drug(s), in triplicate, and the amount of viable cells was assessed at 48 h using the WST-1 assay (Roche, USA) after normalization to wells containing an equivalent volume of vehicle (DMSO) only. For clonogenic assay, 5×10^3 cells were plated in 0.5% agar in medium supplemented with 10% FBS (plus 1 U/mL EPO in case of Ba/F3-EPOR wt cells); variable amount of the drug(s) (or an equivalent volume of vehicle in control plates) was added once at the beginning of culture. Colonies were enumerated by inverted microscopy after 7 day incubation, in duplicate. Quantification of apoptotic cells was accomplished by flow cytometry using the Annexin-V-FLUOS Staining kit (Roche); at least 20,000 events were acquired. For cell cycle distribution analysis by flow cytometry, 1×10^6 cells were treated with ethanol 95%, RNase 10 µg/mL and propidium iodide […].

BFU-E from PMF patients = test: Colony assay for hematopoietic progenitors, BFU-E, PMF patients; assay type: cell-based; settings: Homo sapiens, 336 h; MF (n = 10), day 14; read-out: IC50, BFU-E colony formation
Procedure: (§4) Figure 3 mTOR and JAK2 inhibitors preferentially suppress colony formation from hematopoietic progenitors of MPN patients as compared to healthy controls. Mononuclear cells from patients with PV or PMF (n = 10 each) or control subjects (n = 10) were plated at 10^5/mL in cytokine-supplemented methylcellulose medium for the growth of erythroid burst-forming unit (BFU-E) and granulocyte-macrophage colony-forming unit (CFU-GM), and CD34^+ cells (5×10^4/mL) were plated in collagen-based medium for megakaryocyte colony-forming unit (CFU-Mk). […] Colonies were enumerated on day 14 and expressed as a percentage of the colonies grown in control plates containing vehicle only.

CFU-GM from PMF patients = test: Colony assay for hematopoietic progenitors, CFU-GM, PMF patients; assay type: cell-based; settings: Homo sapiens, 336 h, MF (n = 10), day 14, read-out: IC50, CFU-GM colony formation
Procedure: as §4

[3] = test system: Ba/F3-EPOR wt cells (JAK2 wild-type); test: Clonogenic assay in agar, Ba/F3-EPOR wt; assay type: cell-based; settings: Mus musculus, 168 h, semisolid culture, 7 days, 1 U/mL EPO, read-out: IC50 of colony formation (clonogenic assay)
Procedure: as §3

[4] = test system: CD34+ cells from healthy controls; test: CD34+ proliferation assay (WST-1, 48 h), healthy controls; assay type: cell-based; settings: Homo sapiens, CD34+ cell; healthy subjects n = 5, 48 h, cytokine cocktail
Procedure: as §1, §2

[5] = test system: CFU-Mk from healthy controls; test: Colony assay for hematopoietic progenitors, CFU-Mk, healthy controls; assay type: cell-based; settings: Homo sapiens, 336 h; Ctrl (n = 10), day 14; read-out: IC50, CFU-Mk colony formation
Procedure: as §4

CFU-GM from PV patients = test: Colony assay for hematopoietic progenitors, CFU-GM, PV patients; assay type: cell-based; settings: Homo sapiens, 336 h, PV (n = 10), day 14, read-out: IC50, CFU-GM colony formation
Procedure: as §4

SET2 cells [6] = test: Cell cycle distribution analysis by flow cytometry, SET2; assay type: cell-based; settings: Homo sapiens, SET-2; SET2, median concentration; read-out: concentration giving 50% reduction of cells in the S-phase compared to controls
Procedure: as §3

[7] = test system: SET2 cells (JAK2V617F mutated); test: Inhibition of proliferation assay (WST-1, 48 h), SET2; assay type: cell-based; settings: Homo sapiens, SET-2, SET2, 48 h
Procedure: as §3

Ba/F3-EPOR VF cells [8] = test: Apoptosis (Annexin V flow cytometry), Ba/F3-EPOR VF; assay type: cell-based, mouse; settings: for IC50: Mus musculus, 48 h, median, read-out: IC50 for apoptosis (Annexin V positive cells)
Procedure: as §3
(§5) Results shown are the Mean±SD of at least three experiments. In panel B, the percentage of Annexin V-positive cells was measured in cultures of Ba/F3-EPOR VF cells exposed to varying amount of the drugs for 48 h; percentage was calculated after subtraction of background apoptosis in cells incubated without drug. Results shown are the Mean±SD of at least three experiments. (TIF) Click here for additional data file.

CFU-Mk from PMF patients = test: Colony assay for hematopoietic progenitors, CFU-Mk, PMF patients; assay type: cell-based; settings: Homo sapiens, 336 h; MF (n = 10), day 14; read-out: IC50, CFU-Mk colony formation
Procedure: as §4

[9] = test system: BFU-E from healthy controls; test: Colony assay for hematopoietic progenitors, BFU-E, healthy controls; assay type: cell-based; settings: Homo sapiens, 336 h; Ctrl (n = 10), day 14; read-out: IC50, BFU-E colony formation
Procedure: as §4

[10] = test system: HEL cells (JAK2V617F mutated); test: Clonogenic assay in agar, HEL; assay type: cell-based; settings: Homo sapiens, Table 1
Procedure: as §3

Ba/F3-EPOR VF cells [11] = test: Cell cycle distribution analysis by flow cytometry (propidium iodide), Ba/F3-EPOR VF; assay type: cell-based; settings: Mus musculus, after 24 hours, median value, read-out: concentration giving 50% reduction of the cells in the S-phase compared to untreated cells
Procedure: as §3, §5

SET2 cells [12] = test: Apoptosis (Annexin V flow cytometry), SET2; assay type: cell-based; settings: Homo sapiens, SET-2; SET2, median
Procedure: as §3

[13] = test system: HEL cells (JAK2V617F mutated); test: Inhibition of proliferation assay (WST-1, 48 h), HEL; assay type: cell-based; settings: Homo sapiens
Procedure: as §3

[14] = test system: SET2 cells (JAK2V617F mutated); test: Clonogenic assay in agar, SET2; assay type: cell-based; settings: Homo sapiens, SET-2
Procedure: as §3

[15] = test system: EEC from peripheral blood mononuclear cells of PV patients; test: EEC assay (erythropoietin-independent erythroid colonies), PV patients; settings: Homo sapiens, PBMC, 240 h, read-out: IC50 of EEC growth
[16] = test system: Ba/F3-EPOR VF cells (JAK2V617F); test: Inhibition of proliferation assay (WST-1, 48 h), Ba/F3-EPOR VF; assay type: cell-based; settings: Mus musculus
Procedure: as §3

CFU-Mk from PV patients = test: Colony assay for hematopoietic progenitors, CFU-Mk, PV patients; assay type: cell-based; settings: Homo sapiens, 336 h; PV (n = 10), day 14; read-out: IC50, CFU-Mk colony formation
Procedure: as §4

BFU-E from PV patients = test: Colony assay for hematopoietic progenitors, BFU-E, PV patients; assay type: cell-based; settings: Homo sapiens, 336 h; PV (n = 10), day 14; read-out: IC50, BFU-E colony formation
Procedure: as §4

[17] = test system: CFU-GM from healthy controls; test: Colony assay for hematopoietic progenitors, CFU-GM, healthy controls; assay type: cell-based; settings: Homo sapiens, 336 h, Ctrl (n = 10), day 14, read-out: IC50, CFU-GM colony formation
Procedure: as §4

[18] = test system: Ba/F3-EPOR VF cells (JAK2V617F); test: Clonogenic assay in agar, Ba/F3-EPOR VF; assay type: cell-based; settings: Mus musculus, 168 h, semisolid culture, 7 days, single drug, read-out: IC50 of colony formation (clonogenic assay)
Procedure: as §3

[19] = Table 3, read-out: IC50, proliferation, single drug
[20] = read-out: IC50, proliferation assay
[21] = SET2, Table 1, read-out: IC50, clonogenic assay
[22] = SET2, Table 3, read-out: IC50, clonogenic potential, single drug
[23] = SET2, running text b32, read-out: concentration preventing colony formation (mean value)
[24] = BaF3, 48 h, Ba/F3 VF liquid culture maintained with Epo 1 U/mL, read-out: IC50 of cell proliferation in the presence of Epo
[25] = Ba/F3-EPOR VF, 48 h, single drug, cytokine-free medium, mean±SD, read-out: IC50 of cell proliferation

Compound | IC50 [1] [µM] | IC50 [2] [µM] | IC50 (BFU-E from PMF patients) [µM] | IC50 (CFU-GM from PMF patients) [µM] | IC50 [3] [µM] | IC50 [4] [µM] | IC50 [5] [µM] | IC50 (CFU-GM from PV patients) [µM] | IC50 (SET2 cells [6]) [µM] | IC50 [7, 19] [µM] | IC50 [7, 20] [µM] | IC50 (Ba/F3-EPOR VF cells [8]) [µM] | IC50 (CFU-Mk from PMF patients) [µM] | IC50 [9] [µM] | IC50 [10] [µM] | IC50 (Ba/F3-EPOR VF cells [11]) [µM] | IC50 (SET2 cells [12]) [µM] | IC50 [15] [µM] | IC50 (CFU-Mk from PV patients) [µM] | IC50 [17] [µM] | also measured
Cc1cc(Nc2nc(N[C@@H](C)c3ncc(F)cn3)ncc2Cl)n[nH]1 [AZD1480] | 0.474 ± 0.03 | 0.752 ± 0.03 | 0.027 ± 0.008 | 0.009 ± 0.003 | 0.75 ± 0.1 | 0.891 ± 0.1 | 0.4 ± 0.012 | 0.046 ± 0.005 | 1.5 | 0.09 ± 0.005 | 0.09 ± 0.005 | 0.8 | 0.059 ± 0.003 | 0.226 ± 0.017 | 0.46 ± 0.03 | 1.2 | 0.4 | 0.019 ± 0.002 | 0.044 ± 0.002 | 0.193 ± 0.013 | IC50 [13]: 0.86 ± 0.02 µM; IC50 [14, 21]: 0.035 ± 0.01 µM; IC50 [14, 22]: 0.035 ± 0.01 µM; IC50 [14, 23]: 0.035 µM; IC50 [16, 24]: 0.707 ± 0.011 µM; IC50 [16, 25]: 0.313 ± 0.023 µM; IC50 (BFU-E from PV patients): 0.135 ± 0.019 µM; IC50 [18]: 0.019 ± 0.011 µM
N#CC[C@H](C1CCCC1)n1cc(-c2ncnc3[nH]ccc23)cn1 [Ruxolitinib, ruxolitinib] | 0.84 ± 0.3 | – | 0.046 ± 0.01 | 0.043 ± 0.004 | – | > 5 | 0.012 ± 0.005 | 0.039 ± 0.006 | 10 | – | – | 1.3 | 0.004 ± 0.003 | 0.167 ± 0.07 | – | 1.87 | 0.5 | 0.0018 ± 0.001 | 0.004 ± 0.002 | 0.209 ± 0.04 | –
CO[C@H]1C[C@@H]2CC[C@@H](C)[C@@](O)(O2)C(=O)C(=O)N2CCCC[C@H]2C(=O)O[C@H]([C@H](C)C[C@@H]2CC[C@@H](OCCO)[C@H](OC)C2)CC(=O)[C@H](C)/C=C(\C)[C@@H](O)[C@@H](OC)C(=O)[C@H](C)C[C@H](C)/C=C/C=C/C=C/1C [RAD001, Everolimus] | 0.271 ± 0.1 | 11 | 0.042 ± 0.01 | 0.046 ± 0.013 | 0.022 ± 0.01 | > 5 | 0.572 ± 0.013 | 0.075 ± 0.004 | 33 | 17 | 17 | 5 | 0.044 ± 0.005 | 0.432 ± 0.022 | 0.93 ± 0.01 | 6.5 | 38 | 0.015 ± 0.01 | 0.05 ± 0.005 | 0.335 ± 0.016 | drug concentration at which an increase of apoptotic cells became appreciable (Ba/F3-EPOR VF cells [8]; followed by a plateau): > 3.3 µM; IC50 [13]: 14 ± 2.8 µM; IC50 [14, 21]: 0.044 ± 0.015 µM; IC50 [14, 22]: 0.044 ± 0.015 µM; IC50 [14, 23]: 0.044 µM; IC50 [16, 24]: 1.23 µM; IC50 [16, 25]: 0.651 ± 0.05 µM; IC50 (BFU-E from PV patients): 0.091 ± 0.015 µM; IC50 [18]: 0.004 ± 0.002 µM
